Test system: Cyp1a2 mRNA in liver
Assay: Cyp1a2 gene expression in liver (real-time PCR)
Format: in vivo, female C57BL/6 mice
Conditions: for BMR20TCDD Liver Cyp1a2 mRNA: 3 days after single oral dose; for REP Liver Cyp1a2 mRNA: relative to TCDD
Protocol: Animals. Eight-week-old female C57BL/6 mice (Harlan laboratories, Venray, the Netherlands) were randomly assigned to treatment groups (six animals per group) and allowed to acclimate for 1.5 weeks. The animals were housed in groups in standard cages and conditions (23 ± 2°C, 50–60% relative humidity, 12-hr dark/light cycle) with free access to food and water. Mice received a single dose of test compound by oral gavage at a dosing volume of 10 mL/kg body weight (BW). Mice treated with corn oil vehicle (10 mL/kg BW) served as controls. For each congener, five different doses were administered, ranging from 0.5–100 μg/kg BW (TCDD) to 5,000–500,000 µg/kg BW (PCB-153). Detailed information on doses is provided in Supplemental Material, Table S1 (http://dx.doi.org/10.1289/ehp.1206336). On day 3 after dosing, animals were euthanized by CO2/O2 asphyxiation, and blood was immediately collected from the abdominal aorta. The liver, thymus, spleen, and adipose tissue were removed, weighed (liver, thymus, and spleen), snap frozen, and stored at –80°C. All animal treatments were performed with permission of the Animal Ethical Committee (DEC Utrecht) and performed according to the [Law on Animal Experiments (1977)]. Animals were treated humanely and with regard for alleviation of suffering.
RNA isolation and quantitative real-time polymerase chain reaction (PCR). Total RNA was isolated from liver and PBLs using a QIAGEN RNeasy kit (QIAGEN). Purity and concentration of the isolated RNA was determined by measuring the absorbance ratio at 260/280 nm and 230/260 nm with a Nanodrop 2000 spectrophotometer (Thermo Scientific, Asheville, NC, USA). RNA was reverse transcribed to complementary DNA (cDNA) using the iScript cDNA synthesis Kit (Bio-Rad, Veenendaal, the Netherlands). Quantitative real-time PCR analyses were performed using the iQ Real-Time PCR Detection System with SYBR green (Bio-Rad). Amplification reactions were set up with […] containing 12.5 μL iQ SYBR Green Supermix (Bio-rad), 0.5 μL distilled H2O, 1 μL (10 μM) forward primer, 1 μL (10 μM) reverse primer, and 10 μL first strand cDNA (10X diluted). Primer sequences were as follows: Cyp1a1: forward-5´-GGTTAACCATGACCGGGAACT-3´ and reverse-5´-TGCCCAAACCAAAGAGAGTGA-3´ ([Schulz et al. 2012]); Cyp1a2: forward-5´-ACATTCCCAAGGAGCGCTGTATCT-3´ and reverse-5´-GTCGATGGCCGAGTTGTTATTGGT-3´ ([Flaveny et al. 2010]); Cyp1b1: forward-5´-GTGGCTGCTCATCCTCTTTACC-3´ and reverse-5´-CCCACAACCTGGTCCAACTC-3´ ([Berge et al. 2004]); β-actin: forward-5´-ATGCTCCCCGGGCTGTAT-3´ and reverse-5´-CATAGGAGTCCTTCTGACCCATTC-3´ ([Schulz et al. 2012]). All primers were run through the National Center for Biotechnology Information Primer-BLAST database (http://www.ncbi.nlm.nih.gov/tools/primer-blast/) to confirm specificity and validate for optimal annealing temperature (60°C for all primers) and efficiency. The efficiency of all primer pairs was 98–102% (tested at 60°C). The following program was used for denaturation and amplification of cDNA: 3 min at 95°C, followed by 40 cycles of 15 sec at 95°C and 45 sec at 60°C. Gene expression for each sample was expressed as threshold cycle (Ct), normalized to the reference gene β-actin (ΔCt). We calculated fold induction relative to the control group.
Data analysis. We obtained concentration–response curves using a sigmoidal dose–response nonlinear regression curve fit with variable slope (GraphPad Prism 6.01; GraphPad Software Inc., San Diego, CA, USA):
In this Hill equation, y is the dependent variable (EROD activity or fold induction of mRNA levels), x the independent variable (administered or systemic dose), E0 is the estimated background response level, Emax is the maximum response, b is the estimated median effective concentration (EC50), and n is the shaping parameter of the Hill curve.
Using the congener-specific BMR20TCDD concentration, REPs were calculated relatively to TCDD: […]

[1] = dose metric Adm dose (µg/kg BW)
[2] = dose metric Syst adipose (ng/g lipid)
[3] = dose metric Syst liver (ng/g lipid)
[4] = dose metric Syst liver (ng/g liver)
[5] = dose metric Syst plasma (ng/g lipid)

SMILES	BMR20TCDD Liver Cyp1a2 mRNA (dose metric Adm dose)	BMR20TCDD Liver Cyp1a2 mRNA (dose metric Syst adipose)	BMR20TCDD Liver Cyp1a2 mRNA (dose metric Syst plasma)	REP Liver Cyp1a2 mRNA [1]	REP Liver Cyp1a2 mRNA [2]	REP Liver Cyp1a2 mRNA [3]	REP Liver Cyp1a2 mRNA [4]	REP Liver Cyp1a2 mRNA [5]
Clc1cc2oc3c(Cl)c(Cl)c(Cl)cc3c2cc1Cl [Congener 4-PeCDF, 2,3,4,7,8-pentachlorodibenzofuran]	8.83 µg/kg BW	6.53 ng/g lipid	8.01 ng/g lipid	0.05	0.3	0.03	0.04	0.2
Clc1ccc(-c2cc(Cl)c(Cl)cc2Cl)cc1Cl [PCB-118, 2,3´,4,4´,5-pentachlorobiphenyl]	15,522 µg/kg BW	117,517 ng/g lipid	103,230 ng/g lipid	0.00003	0.00001	0.0002	0.0003	0.00002
Clc1ccc(-c2cc(Cl)c(Cl)c(Cl)c2)cc1Cl [PCB-126, 3,3´,4,4´,5-pentachlorobiphenyl]	87.4 µg/kg BW	120 ng/g lipid	135 ng/g lipid	0.005	0.01	0.002	0.003	0.01
Clc1ccc(-c2cc(Cl)c(Cl)c(Cl)c2Cl)cc1Cl [PCB-156, 2,3,3´,4,4´,5-hexachlorobiphenyl]	12,085 µg/kg BW	22,134 ng/g lipid	60,702 ng/g lipid	0.00003	0.00008	0.0003	0.0006	0.00003
Clc1cc2c(cc1Cl)Oc1c(cc(Cl)c(Cl)c1Cl)O2 [PeCDD, 1,2,3,7,8-pentachlorodibenzodioxin]	0.56 µg/kg BW	1.20 ng/g lipid	2.36 ng/g lipid	0.7	1	0.5	0.6	0.8
Clc1cc2c(cc1Cl)Oc1cc(Cl)c(Cl)cc1O2 [TCDD, 2,3,7,8-tetrachlorodibenzodioxin, reference compound]	0.41 µg/kg BW	1.73 ng/g lipid	1.85 ng/g lipid	1	1	1	1	1

From publication PMC3702004, “Comparison of Intake and Systemic Relative Effect Potencies of Dioxin-like Compounds in Female Mice after a Single Oral Dose” (Environmental Health Perspectives, 2013)
